Nine molecules from patent US10632137B2, “Composition containing ivermectin for exterminating Clavinema mariae infection on Sebastes schlegeli” (REPUBLIC OF KOREA (National Institute of Fisheries Science), priority 2017, dated 2020) can be followed below.

Entries after “also recorded” stand apart in the source; their conditions may differ.

Data set [1] relates to Clavinema mariae. The data set can be described thus: In vivo killing (antiparasitic) effect in Sebastes schlegeli naturally infected with Clavinema mariae. The procedure: 500 Sebastes schlegeli (116±17 g, 20±9 cm) on the west coast region of Korea were purchased and were allowed to habituate at a water temperature of 18.5 to 21° C. in a sea water tank for one week. Since the Sebastes schlegeli infected with Clavinema mariae is able to be confirmed by visual inspection, the Sebastes schlegeli was anesthetized with MS-222, and only the Sebastes schlegeli infected with Clavinema mariae was screened by visual inspection and used for clinical examination.

Data set [2] relates to Clavinema mariae. The data set can be described thus: organism not typed. Particulars: for Viability of Clavinema mariae (Dead %/Survived): after 1 hour; for Killing Concentration (ppm): in vitro, Clavinema mariae in PBS, 1 hour; for Antiparasitic effect of Clavinema mariae in vitro compared with the recommended concentration: in vitro killing concentration versus recommended concentration of Table 3. The text has this:
Candidate materials of a medicine for exterminating Clavinema mariae infection on Sebastes schlegeli were screened by examining various documents (Table 1). […] From the Sebastes schlegeli naturally infected with Clavinema mariae, the Clavinema mariae was carefully removed with tweezers, preserved in PBS, and directly exposed to nine candidate materials at various concentrations to evaluate the antiparasitic effect. […] However, after being killed, the movement disappears, and thus whether it is dead or not is able to be easily determined by observing whether it moves or not. Among the nine candidate materials, Febendazole, Pyrantel, Levamisole, Piperazine, Ivermectin, Trichlorfon, and Praziqantel were purchased from Sigma Aldrich (USA), and hydrogen peroxide and formalin solution were purchased from Junsei (Japan). Among the candidate materials, a poorly soluble compound, Febendazole, was dissolved in 100% ethanol and diluted with PBS to be used. Piperazine and Ivermectin were dissolved in dimethylsulfoxide (DMSO) and diluted with PBS to be used.
Clavinema mariae was extracted from Sebastes schlegeli (average weight: 150 g) cultivated on the west coast of Cheonsu Bay area (FIG. 1), 2 ml of each candidate material diluted with PBS to have each concentration was dispensed into a 6-well plate. Ten (10) living Clavinema mariae were placed in each well, and viability thereof was confirmed after 1 hour (FIG. 2).

Data set [3] concerns Sebastes schlegeli. The data set can be described thus: Mortality (death of fish) of treated Sebastes schlegeli.
Text: For the oral administration, a predetermined amount of each candidate material was mixed with blended powder feed to prepare a feed pellet, the Sebastes schlegeli was anesthetized, and the feed pellet was inserted up to the stomach with tweezers (FIG. 2). […] After 2 weeks, all experimental fishes were anesthetized with MS-222, and Clavinema mariae was extracted with tweezers to confirm the death. The control group was anesthetized, and then only feed pill to which the drug is not added was orally administered thereto.
For this purpose, 10 Sebastes schlegeli infected with Clavinema mariae were divided for each experimental group, and when two weeks passed after the Ivermectin was administered a total of 1 to 4 times daily or every 2 to 4 days while changing an oral administration concentration from 1 to 18 ppm, the antiparasitic effect and the mortality of the Clavinema mariae were observed.
Data set [4] relates to Sebastes schlegeli. The data set can be described thus: Histological analysis (H&E) of internal organs after Ivermectin oral administration. Type of data set: in vivo. The settings on record: for hepatocyte (liver histology): oral, 4 times, one week after last administration. The procedure:
Ivermectin was orally administered to Sebastes schlegeli according to dosing concentrations, dosing times, and dosing intervals described in Table 6, and after one week from the last oral administration, histological analysis of internal organs was performed. The histological analysis was performed by fixing the liver, kidney, spleen and gill of the experimental fish with 10% neutral formalin, followed by dehydration and paraffin embedding, and the cut tissues were stained with hematoxylin-eosin (H & E) and examined. As a result of histopathological examination, the spleen, kidney, and gill except the liver were normal in all tissues as compared with the control group. […] Therefore, it was confirmed that administration of 1 ppm of Ivermectin 4 times daily or every 2 to 3 days or administration of 2 ppm of Ivermectin every 2 to 3 days was the most preferable administration method in view of stability.

The mark [5] stands for this setting: oral, 5 ppm, 1 administration, after 2 weeks.
The mark [6] stands for this setting: 1 h, read-out: Viability of Clavinema mariae (Dead %/Survived).
The mark [7] stands for this setting: at the concentrations shown in Table 4, once, after 2 weeks.
The mark [8] stands for this setting: medicated bath, 50 ppm, 10 minutes, 1 bath, after 2 weeks.
The mark [9] stands for this setting: medicated bath, 50 ppm, 10 minutes, 1 bath, observed for 2 weeks.

Consider `COC(=O)Nc1nc2ccc(Sc3ccccc3)cc2[nH]1` [Fenbendazole], for which the “Killing Effect (%)” value was determined as 0% in data set [1] (setting [5]) and 0% in data set [1] (oral, 15 ppm, 1 administration, after 2 weeks). Moreover, the “Viability of Clavinema mariae (Dead %/Survived)” value (shortened to “Viability … (Dead %/Survived)”) in data set [2] (1.7 ppm in PBS) and in data set [2] (5 ppm in PBS) was “Survived” throughout. In addition, in data set [2] (setting [6]), the mortality at 15 ppm stood at 100%. Further, the mortality at 30 ppm in data set [2] (setting [6]) turned out to be 100%. Besides, the “Killing Concentration (ppm)” value in data set [2] is 5-15 ppm. Moreover, the “Death of fish (%)” value amounted to 0% in data set [3] (oral, 5 ppm, 1 administration, observed for 2 weeks) and 0% in data set [3] (oral, 15 ppm, 1 administration, observed for 2 weeks).
Regarding `C=O` [Formaline, Formalin], the “Antiparasitic effect against Clavinema mariae on Sebastes schlegeli” value (“Antiparasitic effect … on Sebastes schlegeli” below) in data set [1] (setting [7]) is “could not be confirmed to have the antiparasitic effect”. Also, in data set [1] (setting [8]), the “Killing Effect (%)” value is given as 0%. Moreover, the “Killing Effect (%)” value in data set [1] (medicated bath, 200 ppm, 10 minutes, 1 bath, after 2 weeks) is given as 0%. Also, in data set [2] (setting [6]), the mortality at 25 ppm was determined as 100%, the mortality at 50 ppm amounted to 100%, the mortality at 70 ppm stood at 100% and the mortality at 350 ppm worked out at 100%. In data set [2], the “Antiparasitic effect of Clavinema mariae in vitro compared with the recommended concentration” value was “at a lower concentration than the recommended concentration” and the “Killing Concentration (ppm)” value was determined as 25 ppm. Besides, the “Death of fish (%)” value in data set [3] (setting [9]) stood at 0%. The “Death of fish (%)” value in data set [3] (medicated bath, 200 ppm, 10 minutes, 1 bath, observed for 2 weeks) is on record as 0%.
Take `OO` [Hydrogen peroxide]: the “Antiparasitic effect … on Sebastes schlegeli” value in data set [1] (setting [7]) is reported as “could not be confirmed to have the antiparasitic effect”. Further, in data set [1] (medicated bath, 10 ppm, 10 minutes, 1 bath, after 2 weeks), the “Killing Effect (%)” value is 0%. Besides, the “Killing Effect (%)” value in data set [1] (setting [8]) was 0%. Also, in data set [2] (setting [6]), the mortality at 5 ppm came out at 100%, the mortality at 10 ppm came out at 100%, the mortality at 14 ppm came out at 100% and the mortality at 280 ppm amounted to 100%. In data set [2], the “Antiparasitic effect of Clavinema mariae in vitro compared with the recommended concentration” value was “at a lower concentration than the recommended concentration” and the “Killing Concentration (ppm)” value is <5 ppm. For the same molecule, the “Death of fish (%)” value in data set [3] (medicated bath, 10 ppm, 10 minutes, 1 bath, observed for 2 weeks) is reported as 0%. In addition, the “Death of fish (%)” value in data set [3] (setting [9]) is recorded as 0%.
Turning to `c1ccc([C@H]2CN3CCSC3=N2)cc1` [Levamisole], the “Killing Effect (%)” value in data set [1] (oral, 2.5 ppm, 1 administration, after 2 weeks) came to 0%. The “Killing Effect (%)” value in data set [1] (setting [5]) is 0%. Further, in data set [2] (setting [6]), the mortality at 0.5 ppm is 20%, the mortality at 1 ppm stood at 100% and the mortality at 1.7 ppm was determined as 100%. Further, the “Antiparasitic effect of Clavinema mariae in vitro compared with the recommended concentration” value in data set [2] is given as “at a lower concentration than the recommended concentration”.
On to `C1CNCCN1` [Piperazine], for which the “Killing Effect (%)” value in data set [1] (oral, 100 ppm, 1 administration, after 2 weeks) turned out to be 0%. Moreover, the “Killing Effect (%)” value in data set [1] (oral, 300 ppm, 1 administration, after 2 weeks) is reported as 0%. Further, in data set [2] (setting [6]), the mortality at 50 ppm came out at 100%, the mortality at 75 ppm is 100% and the mortality at 100 ppm was 100%. In addition, in data set [2], the “Antiparasitic effect of Clavinema mariae in vitro compared with the recommended concentration” value is on record as “at a lower concentration than the recommended concentration” and the “Killing Concentration (ppm)” value is given as 33-50 ppm. In data set [3] (oral, 100 ppm, 1 administration, observed for 2 weeks), the “Death of fish (%)” value stood at 0%. Besides, the “Death of fish (%)” value in data set [3] (oral, 300 ppm, 1 administration, observed for 2 weeks) came to 30%.
In the case of `O=C(C1CCCCC1)N1CC(=O)N2CCc3ccccc3C2C1` (centres unmarked) [Praziquantel], in data set [2] (setting [6]), the mortality at 800 ppm came to 100% and the mortality at 1600 ppm was found to be 100%. Also, in data set [2], the “Antiparasitic effect of Clavinema mariae in vitro compared with the recommended concentration” value was “did not show the antiparasitic effect of Clavinema mariae at a concentration 2000 times higher than the recommended concentration” and the “Killing Concentration (ppm)” value is recorded as 400-800 ppm.
With `CN1CCCN=C1/C=C/c1cccs1` [Pyrantel], in data set [1] (oral, 2.7 ppm, 1 administration, after 2 weeks), the “Killing Effect (%)” value was 0%. In data set [2] (setting [6]), the mortality at 0.06 ppm turned out to be 20%, the mortality at 0.09 ppm was determined as 100% and the mortality at 0.9 ppm stood at 100%. For the same molecule, in data set [2], the “Antiparasitic effect of Clavinema mariae in vitro compared with the recommended concentration” value is “at a lower concentration than the recommended concentration” and the “Killing Concentration (ppm)” value was 0.02-0.06 ppm. The “Death of fish (%)” value in data set [3] (oral, 2.7 ppm, 1 administration, observed for 2 weeks) is given as 0%.
Take `COP(=O)(OC)C(O)C(Cl)(Cl)Cl` (centres unmarked) [Trichlorfon]: the “Viability … (Dead %/Survived)” value in data set [2] (2.5 ppm in PBS) is “Survived”. For the same molecule, the “Viability … (Dead %/Survived)” value in data set [2] (25 ppm in PBS) is reported as “Survived”. Moreover, in data set [2] (setting [6]), the mortality at 50 ppm is 100% and the mortality at 75 ppm turned out to be 100%. Moreover, in data set [2], the “Antiparasitic effect of Clavinema mariae in vitro compared with the recommended concentration” value was “showed the antiparasitic effect at a very high concentration” and the “Killing Concentration (ppm)” value is on record as 25-50 ppm.
Consider Ivermectin, for which the “Time until the spot where the pus is formed disappeared and was completely cured” value in data set [1] (oral, 1 ppm once) is reported as ≤ 6 weeks. Also, the “Antiparasitic effect … on Sebastes schlegeli” value in data set [1] (oral, 1 ppm once, after two weeks) was “some individuals had pus in a spot infected with the Clavinema mariae, and showed the antiparasitic effect”. The “Killing Effect (%)” value in data set [1] (oral, 1 ppm, 1 administration, after 2 weeks) is given as 20%; in data set [1] (oral, 1 ppm, 4 times, everyday, after two weeks), 100%; in data set [1] (oral, 1 ppm, 4 times, intervals 2-3 days, after two weeks), 100%; in data set [1] (oral, 2 ppm, 4 times, everyday, after two weeks), 100%; in data set [1] (oral, 2 ppm, 4 times, intervals 2-3 days, after two weeks), 100%; in data set [1] (oral, 3 ppm, 2 times, everyday, after two weeks) it was 100%. Besides, the “Killing Effect (%)” value in data set [1] (oral, 3 ppm, 2 times, interval 3 days, after two weeks) stood at 100%; in data set [1] (oral, 4 ppm, 2 times, everyday, after two weeks) it was 100%; in data set [1] (oral, 5 ppm, 2 times, everyday, after two weeks), 100%; in data set [1] (oral, 6 ppm, 2 times, interval 4 days, after two weeks), 100%. In data set [1] (oral, 1 to 2 ppm, 4 times), this molecule displayed a Nematode antiparasitic effect of 100%. The “State of the infection area after 6 weeks” value in data set [1] (oral, 1 to 2 ppm, 4 times, after 6 weeks) is on record as “the infection area was cleanly treated”. For the same molecule, the “Viability … (Dead %/Survived)” value is “Survived” in data set [2] (0.001 ppm in PBS), “Dead (100%)” in data set [2] (0.01 ppm in PBS), “Dead (100%)” in data set [2] (0.05 ppm in PBS) and “Dead (100%)” in data set [2] (0.5 ppm in PBS). For the same molecule, in data set [2], the “Antiparasitic effect of Clavinema mariae in vitro compared with the recommended concentration” value was “at a lower concentration than the recommended concentration”. In addition, the “Killing Concentration (ppm)” value in data set [2] is listed as 0.001-0.01 ppm. Also, the “Histopathological examination of spleen, kidney and gill” value in data set [4] (all regimens of Table 6, compared with the control group) is listed as “normal”. The “hepatocyte (liver histology)” value is “Abnormality of the liver tissue was not confirmed; also recorded: Normal” in data set [4] (1 ppm, 2-3 days); “Abnormality of the liver tissue was not confirmed; also recorded: Normal” in data set [4] (1 ppm, everyday); “Abnormality of the liver tissue was not confirmed; also recorded: Normal” in data set [4] (2 ppm, 2-3 days); “hepatocyte metamorphosis, vacuolar formation” in data set [4] (2 ppm, everyday). Besides, the “Death of fish (%)” value in data set [3] (oral, 1 ppm, 1 administration, observed for 2 weeks) is 0%; in data set [3] (oral, 1 ppm, 4 times, everyday), 0%; in data set [3] (oral, 1 ppm, 4 times, intervals 2-3 days) it was 0%; in data set [3] (oral, 2 ppm, 4 times, everyday), 20%; in data set [3] (oral, 2 ppm, 4 times, intervals 2-3 days), 0%; in data set [3] (oral, 3 ppm, 2 times, everyday), 60%. Further, the “Death of fish (%)” value in data set [3] (oral, 3 ppm, 2 times, interval 3 days) came to 20%; in data set [3] (oral, 4 ppm, 2 times, everyday), 60%; in data set [3] (oral, 5 ppm, 2 times, everyday), 30%; in data set [3] (oral, 6 ppm, 2 times, interval 4 days), 70%; in data set [3] (oral, 18 ppm, 1 time), 100%. In addition, the “Behaviour and death of Sebastes schlegeli” value in data set [3] (oral, 2 ppm, 4 times) was “some Sebastes schlegeli were sitting on the bottom and died”. Further, the “Death of Sebastes schlegeli” value in data set [3] (oral, 3 ppm or more) was “death occurred after being administered 2 times”.
